Results as given in patent US20130085133A1, “ANTI-VIRAL TREATMENT AND ASSAY TO SCREENFOR ANTI-VIRAL AGENT” (Sourthern Research Institute Office of Commercialization …, priority 2010, published 2013).
pEC50: −log10 of the molar value.

How the values were obtained:
[1] = cytotoxicity assay (percent viability of HEp-2 cells, Cell Titer-Glo); settings: human, HEp-2 cells
Method: Test compounds were evaluated by measuring their antiviral activity, cell toxicity, and selectivity. Test compounds were serially diluted in a plate to plate matrix or “stacked plate” matrix. All 320 compounds in a source plate were diluted together resulting in a 10 point dose response dilution series. It was visualized as a serial dilution series proceeding vertically through a stack of plates with the high dose plate on top and the low dose plate on the bottom.
Following the six day incubation period, the assay plates were equilibrated to room temperature for 30 min and an equal volume (30 μL) of Cell Titer-Glo reagent (Promega Inc.) was added to each well using a WellMate (Matrix, Hudson, N.H.) and plates were incubated for an additional 10 min at room temperature. At the end of the incubation, luminescence was measured using a Perkin Elmer Envision™ multi-label reader (PerkinElmer, Wellesley, Mass.) with an integration time of 0.1 s.
Data was analyzed using ActivityBase software (IDBS, Inc, Guilford, UK). thirty two control wells containing cells only and twenty four wells containing cells and virus were included on each assay plate and used to calculate Z′ value for each plate and to normalize the data on a per plate basis. […] Eight ribavirin positive control wells were included on each plate for quality control purposes, but were not used in Z′ calculations. […] In the toxicity assay, results are described as percent viability and the calculation is the same.
An EC50 (for CPE inhibition) and IC50 (for cell viability) were calculated for each substance using the 4 parameter Levenburg-Marquardt algorithm with parameter A locked at 0 and parameter B locked at 100. Standard deviation, normalized chi2 and hill slope were used to evaluate the curves. Values were not extrapolated beyond the tested range of concentrations.

[2] = tested on: respiratory syncytial virus (RSV) strain Long; assay: microbe, parasite or virus in culture; settings: human respiratory syncytial virus, HEp-2, 144 h
RSV, Long strain = assay: virus titer Reduction (VTR) assay, progeny virus TCID50 in HEp-2 cells; assay type: cell-based, respiratory syncytial virus (RSV); settings: human respiratory syncytial virus, 48 h
Method: Four concentrations of each compound were evaluated (Table 3). Briefly, the four concentrations of test compounds, HEp-2 cells (8×10^3 per well) and RSV, Long strain (MOI=0.9) were plated in 96 well microtiter plates. The plates were incubated for 48 hours. Fifteen (15) μl of 10-fold serial dilution of progeny virus containing medium from respective samples (test compound treated or untreated) was transferred to infect fresh HEp-2 cells (2×10^3 cells per well) in a 384 well format. Plates were incubated for an additional 6 days and luminescence was measured using Cell Titer-Glo reagent (Promega Inc.) to determine cell viability. […] A well showing lesser than 50% cell viability was regarded as positive for virus infection. Four replicates for each virus dilution were analyzed and the number of virus positive wells (out of 4) was plotted versus the dilution. TCID50 was calculated to be the dilution that produced two positive wells out of four using ActivityBase software (IDBS, Inc, Guilford, UK).

Row | SMILES | EC50 [2] [µg/mL] | pEC50 [2] | CC50 at 6 days [1] | also measured
1 | Cc1ccc2nc(-c3ccccc3)c(CN3CCCC3)c(O)c2c1 [AB00293683] | 18.8 | – | > 25 µg/mL | –
2 | COc1cc(-c2nnc(SCc3cc(Cl)cc(Cl)c3)o2)cc(OC)c1OC [AB00292171] | 7.64 | – | > 25 µg/mL | –
3 | Cc1cnc(NC(=O)c2ccc(Cl)cc2Cl)s1 [AB00276221] | 17.6 | – | > 25 µg/mL | –
4 | COC(=O)Cc1ccc2c3ccccc3n(C)c2c1 [AB00299031] | 21.7 | – | > 25 µg/mL | –
5 | NC(=O)c1ccccc1NC(=O)CSc1nc2ccccc2o1 [AB00132114] | 20.7 | – | > 25 µg/mL | –
6 | CC(=O)CCc1c(O)nc2ccccc2c1C [AB00279389] | 14.2 | – | > 25 µg/mL | –
7 | Cc1nc(Nc2ccccc2Cl)sc1C(=O)Nc1ccccc1 [AB00299380] | 10.4 | – | > 25 µg/mL | –
8 | O=C(Nc1ccccc1)N1CCc2cc([N+](=O)[O-])ccc21 [AB00705281] | – | – | – | log reduction at 5 µg/mL (RSV, Long strain; 5 ug/ml compound, read-out: TCID-50 Reduction @ 5 ug/ml): 4.75; log reduction at 12 µg/mL (RSV, Long strain; 12 ug/ml compound, read-out: TCID-50 Reduction 12 @ ug/ml): 4.2; log reduction at 25 µg/mL (RSV, Long strain; 25 ug/ml compound, read-out: TCID-50 Reduction 25 @ ug/ml): 5.56; log reduction at 50 µg/mL (RSV, Long strain; 50 ug/ml compound, read-out: TCID-50 Reduction @ 50 ug/ml): 5.9
9 | CCOC(=O)c1ccc(NC(=O)CN(c2ccccc2Br)S(C)(=O)=O)cc1 [AB00282821] | 14.5 | – | > 25 µg/mL | –
10 | O=C(Nc1ccc(Nc2ccccc2)cc1)c1ccccc1F [AB00282102] | 12 | – | > 25 µg/mL | –

The next lines start with results.

Row | EC50 [2] [µg/mL] | pEC50 [2] | SMILES | CC50 at 6 days [1] | also measured
11 | 20.3 | – | Cn1c(SCCc2ccccc2)nnc1-c1cccc([N+](=O)[O-])c1 [AB00309238] | > 25 µg/mL | –
12 | 12.4 | – | O=C(Nc1cccc(Br)c1)C1CCN(C(=O)c2ccc([N+](=O)[O-])cc2)CC1 [AB00317214] | > 25 µg/mL | –
13 | 2.72 | – | NC(=O)c1c(NC(=O)Nc2cccc(Cl)c2)sc2c1CCCC2 [AB00313952] | > 25 µg/mL | –
14 | – | 4.42 | COCCn1c(SCC(=O)NC2CCCc3ccccc32)nnc1-c1cccc(C)c1 (stereo not drawn) [AB00728760] | > 50 µM | –
15 | 17.5 | – | COC(=O)c1sc2cc(NC(=S)NCCCN3CCCC3=O)ccc2c1Cl [AB00351451] | > 25 µg/mL | –
16 | 11.6 | – | CSc1ccc(Cl)c(C(=O)Nc2ccc(Cc3ccccn3)cc2)c1 [AB00369798] | > 25 µg/mL | –
17 | 18.8 | – | Cn1c(SCC(=O)N2c3ccccc3SC3C=CC=CC32)nnc1-c1ccccc1 (stereo not drawn) [AB00370949] | > 25 µg/mL | –
18 | 19.6 | – | O=C(Nc1ccccc1Br)c1cnccn1 [AB00310846] | > 25 µg/mL | –
19 | 17.1 | – | Cc1cccc(C(=O)Nc2cc(C(C)C)c(O)cc2C)c1 [AB00305611] | > 25 µg/mL | –
20 | 21.1 | – | COc1ccc(CN2C(=O)CC(Cc3ccccc3)C2=O)cc1 (stereo not drawn) [AB00307412] | > 25 µg/mL | –
21 | – | 4.58 | CC(=O)Nc1cc(C(=O)CSc2nc3ccccc3n2C)ccc1O [AB00766545] | > 50 µM | –
22 | 20.1 | – | Cc1ccc(NC(=O)CN2CCCC2)c(Br)c1 [AB00358122] | > 25 µg/mL | –
23 | – | 4.41 | Clc1ccccc1OCc1noc(-c2cccs2)n1 [AB00877365] | > 50 µM | –
24 | 19.8 | – | Cc1cc(C)cc(C(=O)Nc2ccc(C#N)cc2)c1 [AB00340723] | > 25 µg/mL | –
25 | 23.6 | – | O=c1c2c3c(sc2ncn1CCO)CCCC3 [AB00372624] | > 25 µg/mL | –
26 | – | 4.38 | CCOC(=O)CCC(NC(=O)c1cnc(NCc2cnc3nc(N)nc(N)c3c2C)s1)C(=O)OCC (stereo not drawn) [AB00375242] | > 50 µM | –
